Experimental data taken from patent US4971982A, “Benzopyran derivatives” (Hoffmann-La Roche Inc., priority 1987, dated 1990).

What follows are compounds tested on potassium channel (assay: potassium channel activating activity: reduction of potassium chloride-induced contractions of rat hepatic portal veins). Settings: isolated hepatic portal veins, male Sprague-Dawley rats; Krebs solution, 37° C.; further 20 mmol of potassium chloride; isometric tension; read-out: IC50 (concentration of test substance producing a half-maximal reduction of the contractions caused by the potassium chloride).
Procedure: Hepatic portal veins are removed from male Sprague-Dawley rats and suspended in organ baths under an initial tension of 0.5 g for the isometric recording of tension. The veins are incubated in Krebs solution (consisting of 118 mM of sodium chloride, 25 mM of sodium hydrogen carbonate, 10.5 mM of D-glucose, 4.7 mM of potassium chloride, 0.4 mM of magnesium sulphate, 1.2 mM of potassium dihydrogen phosphate and 2.5 mM of calcium chloride) which is gassed with 95% oxygen and 5% carbon dioxide and maintained at 37° C. After incubation for 0.5 hour to 1 hour a further 20 mmol of potassium chloride is added followed after 0.25 hour to 0.5 hour by increasing concentrations of the test substance. The activity of the test substance is expressed as the IC50 value, which is the concentration of test substance producing a half-maximal reduction of the contractions caused by the potassium chloride.

Structure (SMILES) | IC50 [nM]
CC1(C)Oc2ccc(C#N)cc2[C@@H](c2cccc[n+]2[O-])[C@@H]1O (racemic) [Compound F, rac-trans-2-(6-cyano-3,4-dihydro-3-hydroxy-2,2-dimethyl-2H-1-benzopyran-4-yl)pyridine N-oxide] | 280 ± 30
CC1(C)CC(c2cccc[n+]2[O-])c2cc(C#N)ccc2O1 (centres unmarked) [Compound A, 2-(6-cyano-3,4-dihydro-2,2-dimethyl-2H-1-benzopyran-4-yl)pyridine N-oxide] | 160 ± 20
CC1(C)C=C(c2cccc[n+]2[O-])c2cc(C#N)ccc2O1 [Compound B, 2-(6-cyano-2,2-dimethyl-2H-1-benzopyran-4-yl)pyridine N-oxide] | 38 ± 2
CC1(C)CC(c2cccc[n+]2[O-])c2cc([N+](=O)[O-])ccc2O1 (centres unmarked) [Compound C, 2-(3,4-dihydro-2,2-dimethyl-6-nitro-2H-1-benzopyran-4-yl)pyridine N-oxide] | 14 ± 1
CC(=O)c1ccc2c(c1)C(c1cccc[n+]1[O-])CC(C)(C)O2 (centres unmarked) [Compound D, 2-(6-acetyl-3,4-dihydro-2,2-dimethyl-2H-1-benzopyran-4-yl)pyridine N-oxide] | 560 ± 70
CC1(C)C=C(c2ccc(-c3ccccc3)c[n+]2[O-])c2cc(C#N)ccc2O1 [Compound E, 2-(6-cyano-2,2-dimethyl-2H-1-benzopyran-4-yl)-5-phenylpyridine N-oxide] | 15 ± 0.5
CCC1(C)C=C(c2cccc[n+]2[O-])c2cc(C#N)ccc2O1 (centres unmarked) [Compound G, 2-(6-cyano-2-ethyl-2-methyl-2H-1-benzopyran-4-yl)pyridine N-oxide] | 19 ± 1.2
CC1(C)C=C(c2cc(C#N)ccc2O)c2cc(C#N)ccc2O1 [Compound H, 4-(5-cyano-2-hydroxyphenyl)-2,2-dimethyl-2H-1-benzopyran-6-carbonitrile] | 3100 ± 800
